The target in this test is T1, delta opioid receptor (Mus musculus, UniProt P32300).
T1 construct: NG108-15 cell membranes were purchased from Applied Cell Sciences (Rockville, Md.); host or cells: NG108-15 cell membranes
Put plainly: [35S]GTPγS binding assay in NG108-15 cell membranes (delta opioid functional assay), 200 nM screen. The test is classed as biochemical. Particulars: NG108-15 cell membranes; for GTPγS δ-RelEfficacy @200 nM: 200 nM test compound, relative to calculated max of SNC80 dose response curve; for GTPγS δ-RelEfficacy @200 nM / EC50: averages if tested more than once; for GTPγS δ-opioid receptor Rel Efficacy: relative efficacy from dose response.

Where [1] appears, read: read-out: GTPγS δ-opioid receptor EC50.
The mark [2] stands for this setting: GTPγS δ-opioid receptor EC50 (μM).

Read-outs that look alike come from different tables or passages of the source.

As usually defined, the EC50 is the midpoint of the concentration-response curve.

T1 sequence (P32300 whole entry): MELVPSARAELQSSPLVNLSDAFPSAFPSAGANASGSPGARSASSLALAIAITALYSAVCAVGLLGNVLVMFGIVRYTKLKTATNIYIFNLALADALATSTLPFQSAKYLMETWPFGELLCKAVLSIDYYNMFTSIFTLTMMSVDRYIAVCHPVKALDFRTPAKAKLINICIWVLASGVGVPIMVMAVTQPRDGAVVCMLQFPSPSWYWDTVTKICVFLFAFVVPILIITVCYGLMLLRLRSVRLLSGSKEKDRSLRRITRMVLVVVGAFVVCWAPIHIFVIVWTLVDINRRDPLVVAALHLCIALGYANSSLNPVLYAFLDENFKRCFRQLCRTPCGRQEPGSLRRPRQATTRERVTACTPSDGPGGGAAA

In the case of `COc1ccc(Oc2nc(-c3cncc(C#N)c3)ncc2NCc2cncn2C)cc1` [Cpd 286], the “GTPγS δ-RelEfficacy @200 nM” value is 0.1.

`COc1ccc(Oc2nc(-c3cccnc3)ncc2NC[C@@H]2CCCN2)cc1C` [Cpd 211]: the “GTPγS δ-RelEfficacy @200 nM” value is reported as 0.814 and the “GTPγS δ-opioid receptor Rel Efficacy” value turned out to be 1.050. For the same molecule, the EC50 under setting [1] was determined as 0.106 µM. As to `COc1ccc(Oc2nc(-c3cncc(C#N)c3)ncc2N2CCNC[C@H]2C)cc1` [Cpd 344], the “GTPγS δ-RelEfficacy @200 nM” value is on record as 0.808 and the “GTPγS δ-opioid receptor Rel Efficacy” value came to 1.089. For the same molecule, under setting [2], the EC50 came to 0.047 µM. In the case of `CC[C@@H]1CN(c2cnc(-c3cncc(OC)c3)nc2Oc2ccc(OC)cc2)CCN1` [Cpd 361], the “GTPγS δ-opioid receptor Rel Efficacy” value is on record as 0.962. Besides, the EC50 under setting [2] is 0.07 µM. As to `COc1ccc(Oc2nc(-c3cncc(OC)c3)ncc2N[C@H]2CCC[C@@H](N)C2)cc1` [Cpd 312, N-[4-(4-Methoxy-phenoxy)-2-(5-methoxy-pyridin-3-yl)-pyrimidin-5-yl]-cyclohexane-(1R,3S)-1,3-diamine], the “GTPγS δ-opioid receptor Rel Efficacy” value worked out at 1.007. The molecule further showed an EC50 under setting [2] of 0.00435 µM. Consider `Nc1ccc(Oc2nc(-c3cncc(F)c3)ncc2NC[C@@H]2CCCN2)cc1` [Cpd 198, [4-(4-Amino-phenoxy)-2-(5-fluoro-pyridin-3-yl)-pyrimidin-5-yl]-pyrrolidin-2-(S)-ylmethyl-amine], for which the “GTPγS δ-RelEfficacy @200 nM” value is reported as 0.513 and the “GTPγS δ-opioid receptor Rel Efficacy” value amounted to 1.050. In addition, the EC50 under setting [1] turned out to be 0.118 µM. For the molecule `COCCOc1ccc(Oc2nc(-c3cncc(SC)c3)ncc2NC[C@@H]2CCCN2)cc1` [Cpd 241], the “GTPγS δ-RelEfficacy @200 nM” value was 0.381. In the case of `COc1ccc(Oc2nc(-c3cncc(C#N)c3)ncc2NCc2ncc[nH]2)cc1` [Cpd 284], the “GTPγS δ-RelEfficacy @200 nM” value was 0.600 and the “GTPγS δ-opioid receptor Rel Efficacy” value stood at 0.609. The molecule also had an EC50 under setting [2] of 0.055 µM. Regarding `COc1ccc(Oc2nc(-c3cncc(SC)c3)ncc2NC2CCCC(N)C2)cc1` (single isomer, unassigned) [Cpd 319], the “GTPγS δ-opioid receptor Rel Efficacy” value was 0.871. Also, the EC50 under setting [2] is 0.112 µM. In the case of `CCc1nc(C)c(CNc2cnc(-c3cncc(C#N)c3)nc2Oc2ccc(OC)cc2)[nH]1` [Cpd 287], the “GTPγS δ-RelEfficacy @200 nM” value is reported as 0.640. For the molecule `COc1ccc(Oc2nc(-c3cccnc3)ncc2NC[C@H]2CCCCN2)cc1` [Cpd 267], the “GTPγS δ-opioid receptor Rel Efficacy” value was found to be 0.920. Further, the EC50 under setting [1] came out at 0.121 µM. `Fc1cncc(-c2ncc(NC[C@@H]3CCCN3)c(Oc3ccc(C(F)(F)F)cc3)n2)c1` [Cpd 221]: the “GTPγS δ-RelEfficacy @200 nM” value is 0.324. As to `COc1ccc(Oc2nc(-c3cncc(F)c3)ncc2NC[C@@H]2C[C@@H](F)CN2)cc1` [Cpd 193], the “GTPγS δ-RelEfficacy @200 nM” value was 0.801 and the “GTPγS δ-opioid receptor Rel Efficacy” value was found to be 1.090. Moreover, it took 0.032 µM to reach a half-maximal effect under setting [2] (EC50).

Regarding `COc1ccc(Oc2nc(-c3cncc(SC)c3)ncc2N2CC[C@@H](N)C2)cc1` [Cpd 348], the “GTPγS δ-opioid receptor Rel Efficacy” value worked out at 0.689. Also, the EC50 under setting [1] was 0.101 µM. Consider `COc1ccc(Oc2nc(-c3cccnc3)ncc2N[C@@H]2CCCNC2)cc1` [Cpd 261], for which the “GTPγS δ-opioid receptor Rel Efficacy” value is 0.979. Under setting [2], this molecule came in with an EC50 of 0.241 µM.

Consider `COc1ccc(Oc2nc(-c3cccnc3)ncc2NC[C@@H]2CCCCN2)cc1` [Cpd 225], for which the “GTPγS δ-RelEfficacy @200 nM” value was 0.260 and the “GTPγS δ-opioid receptor Rel Efficacy” value is on record as 0.718. Moreover, the EC50 under setting [1] is 0.483 µM. With `COc1ccc(Oc2nc(-c3cccnc3)ncc2NC2CNC2)cc1` [Cpd 226], the “GTPγS δ-RelEfficacy @200 nM” value is reported as 0.320. On to `COc1ccc(Oc2nc(-c3cncc(C#N)c3)ncc2NC[C@@H]2CCCN2)cc1C` [Cpd 204], for which the “GTPγS δ-RelEfficacy @200 nM” value is 0.911 and the “GTPγS δ-opioid receptor Rel Efficacy” value was 0.982. The molecule also yielded an EC50 under setting [2] of 0.026 µM. For the molecule `COCCOc1ccc(Oc2nc(-c3cncc(OC)c3)ncc2NC[C@@H]2CCCN2)cc1` [Cpd 243], the “GTPγS δ-RelEfficacy @200 nM” value is reported as 0.433. Same read-out and setting: under `CCN(CC)C(=O)c1cccc(Oc2nc(-c3cncc(F)c3)ncc2NC[C@@H]2CCCN2)c1` [Cpd 170] stands 0.176; under `O=C(c1cccc(Oc2nc(-c3cncc(F)c3)ncc2NC[C@@H]2CCCN2)c1)N1CCCCC1` [Cpd 172], 0.246. For `CC(=O)Oc1cccc(Oc2nc(-c3cncc(C#N)c3)ncc2NC[C@@H]2CCCN2)c1` [Cpd 228], the “GTPγS δ-RelEfficacy @200 nM” value is 1.039 and the “GTPγS δ-opioid receptor Rel Efficacy” value came out at 1.082. Also, under setting [2], a half-maximal effect (EC50) was put at 0.006 µM. With `COc1ccc(Oc2nc(-c3cncc(OC)c3)ncc2NC[C@H]2C[C@@H](O)CN2)cc1` [Cpd 274, 5-(R)-{[4-(4-Methoxy-phenoxy)-2-(5-methoxy-pyridin-3-yl)-pyrimidin-5-ylamino]-methyl}-pyrrolidin-3-(R)-ol], the “GTPγS δ-opioid receptor Rel Efficacy” value is 0.863. Besides, the EC50 under setting [2] amounted to 0.286 µM. In the case of `O=CNc1ccc(Oc2nc(-c3cccnc3)ncc2NC[C@@H]2CCCN2)cc1` [Cpd 216], the “GTPγS δ-RelEfficacy @200 nM” value is on record as 0.406 and the “GTPγS δ-opioid receptor Rel Efficacy” value worked out at 0.969. Besides, the EC50 under setting [1] came out at 0.494 µM. With `COc1ccc(Oc2nc(-c3cncc(C)c3)ncc2NCc2cnc[nH]2)cc1` [Cpd 291], the “GTPγS δ-RelEfficacy @200 nM” value was 0.303.

Turning to `CN1CCN(C(=O)c2cccc(Oc3nc(-c4cncc(F)c4)ncc3NC[C@@H]3CCCN3)c2)CC1` [Cpd 174], the “GTPγS δ-RelEfficacy @200 nM” value is recorded as 0.205. For `O=C(c1cccc(Oc2nc(-c3cncc(F)c3)ncc2NC[C@@H]2CCCN2)c1)N1CCOCC1` [Cpd 173], the “GTPγS δ-RelEfficacy @200 nM” value is given as 0.249.

For `Cc1ccc(Oc2nc(-c3cncc(F)c3)ncc2NC[C@@H]2CCCN2)c(F)c1F` [Cpd 191], the “GTPγS δ-RelEfficacy @200 nM” value was 0.410. As to `N#Cc1cncc(-c2ncc(NC[C@@H]3CCCN3)c(Oc3ccccc3Cl)n2)c1` [Cpd 230], the “GTPγS δ-RelEfficacy @200 nM” value is on record as 0.847.

For the molecule `COc1ccc(Oc2nc(-c3cncc(C#N)c3)ncc2N2CCC[C@@H]2CN)cc1` [Cpd 334], the “GTPγS δ-RelEfficacy @200 nM” value is on record as 0.423. `COc1ccc(Oc2nc(-c3cncc(C#N)c3)ncc2N2CCNC(=O)C2)cc1` [Cpd 335]: the “GTPγS δ-RelEfficacy @200 nM” value was 0.050. Regarding `COc1ccc(Oc2nc(-c3cncc(C#N)c3)ncc2NC2CC(N)C2)cc1` (stereo not shown) [Cpd 303], the “GTPγS δ-RelEfficacy @200 nM” value was 0.622 and the “GTPγS δ-opioid receptor Rel Efficacy” value is on record as 1.047. Also, the EC50 under setting [1] amounted to 0.114 µM. The like results for `Cc1ccc(Oc2nc(-c3cncc(Cl)c3)ncc2NC[C@@H]2CCCN2)cc1F` [Cpd 186] were, in that order, 0.466, 1.113 and 0.331 µM. `COCCOc1ccc(Oc2nc(-c3cccnc3)ncc2NC[C@@H]2CCCN2)cc1` [Cpd 244]: the “GTPγS δ-RelEfficacy @200 nM” value is 0.354. As for `CC(=O)Nc1ccc(Oc2nc(-c3cncc(F)c3)ncc2NC[C@@H]2CCCN2)cc1` [Cpd 212], the “GTPγS δ-opioid receptor Rel Efficacy” value is reported as 0.994. Under setting [2], this molecule returned an EC50 of 0.029 µM. Take `Cc1ccc(Oc2nc(-c3cncc(Cl)c3)ncc2NC[C@@H]2CCCN2)c(F)c1F` [Cpd 190]: the “GTPγS δ-RelEfficacy @200 nM” value was 0.222. Consider `Cc1cncc(-c2ncc(NC[C@@H]3CCCN3)c(Oc3ccc(OCF)cc3)n2)c1` [Cpd 260], for which the “GTPγS δ-opioid receptor Rel Efficacy” value turned out to be 0.937. The EC50 under setting [1] was 0.3 µM. Consider `COc1ccc(Oc2nc(-c3cncc(OC)c3)ncc2N2CCNCC2)cc1` [Cpd 342], for which the “GTPγS δ-opioid receptor Rel Efficacy” value was found to be 1.020. This molecule had an EC50 under setting [2] of 0.0439 µM.

Values taken from patent publication US8513271B2, “Pyrimidine compounds as delta opioid receptor modulators” (Janssen Pharmaceutica, NV, priority 2009, dated 2013).
